The values that follow come from doi:10.1101/2021.03.09.434688v1 (biorxiv, 2021).

Each structure is given as a SMILES string.

In this assay the target is T1, PsnB (Plesiocystis pacifica, UniProt A6G4D7).
T1 sequence (A6G4D7 1-314): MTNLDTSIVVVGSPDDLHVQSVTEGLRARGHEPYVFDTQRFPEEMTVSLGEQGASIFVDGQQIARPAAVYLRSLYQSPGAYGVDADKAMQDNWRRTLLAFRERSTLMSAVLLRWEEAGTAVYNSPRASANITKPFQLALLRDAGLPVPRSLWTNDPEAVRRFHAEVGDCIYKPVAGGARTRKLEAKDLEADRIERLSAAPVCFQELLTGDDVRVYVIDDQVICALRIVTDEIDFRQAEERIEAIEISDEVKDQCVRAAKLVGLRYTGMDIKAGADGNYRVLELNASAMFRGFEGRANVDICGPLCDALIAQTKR
T1 sequence (A6GH40 14-38 partner): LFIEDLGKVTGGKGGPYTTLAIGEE
In words: X-ray crystal structure of the complex. In kind it is binding. As to conditions: complex with minimal precursor PsnA2_14-38 and Mg; nucleotide 5 mM; ATP site.

Regarding `Nc1ncnc2c1ncn2[C@@H]1O[C@H](COP(=O)(O)OP(=O)(O)O)[C@@H](O)[C@H]1O` [ADP], the “X-ray crystal structure of the complex” value is “For PsnB-MP-ADP (7DRM)”. As to `Nc1ncnc2c1ncn2[C@@H]1O[C@H](COP(=O)(O)OP(=O)(O)NP(=O)(O)O)[C@@H](O)[C@H]1O` [AMPPNP], the “X-ray crystal structure of the complex” value is “PsnB-MP-AMPPNP (7DRN)”.
